The nature of data set [1]: Accelerated stability study of cholecalciferol in DMSO/ethanol formulations. The format is physicochemical. The conditions noted are these: across all formulations, 25° C.±2° C./60% RH±5%. The procedure:
The stability of cholecalciferol in the chosen penetration enhancer is an important consideration when analysing the physical properties of the formulation. An unstable formulation which causes cholecalciferol to degrade would result in delivery of sub-lethal doses. […] Conversely, cholecalciferol solutions in surfactants and oils are said to be stable over long periods at 40° C. In order to assess the stability of cholecalciferol when combined with the chosen penetration enhancers an accelerated stability study was performed. In total, 6 formulations with varying types and concentration of penetration enhancers were stored in an accelerated stability cabinet at 25° C.±2° C./60% RH±5%. Each formulation contained 10% (w/v) cholecalciferol. Each formulation was made up a day before the intended start date of the stability study and left in a water bath/shaker overnight at 25° C. to allow adequate time for the cholecalciferol to dissolve. Amber bottles were used to prevent photo-degradation and parafilm was used to seal round the screw lid to prevent oxidative degradation from the air. At each sampling point the lid was removed and 200 μl taken; the sample was serially diluted 8 times (256-fold) before analysis with HPLC.
All formulations contain 10% (w/v) cholecalciferol.

The conditions of data set [2]: cited from earlier work.
The conditions of data set [3]: crystalline form, 7 days, cited from earlier work.

Like-named read-outs stand apart in the source and are kept apart here.

The values that follow come from patent US20180027807A1, “Vermin Control Compositions” (priority 2013, published 2018).

In the case of `C=C1CC[C@H](O)C/C1=C/C=C1\CCC[C@]2(C)[C@@H]([C@H](C)CCCC(C)C)CC[C@@H]12` [cholecalciferol], in data set [1] (during the first 10 days), the degradation of cholecalciferol worked out at 16.83%. Besides, in data set [1] (over 50 days, 10% (w/v) in DMSO/ethanol ratios, amber bottles), the “degradation of cholecalciferol (drop in potency)” value stood at 27.11%. For the same compound, the “Solubility (class)” value in data set [2] (cholecalciferol in ethanol, classification taken from the British Pharmacopeia) was “freely soluble (a solubility between 1-10 ml/g is classed as freely soluble)”. The solubility in water result in data set [2] (cholecalciferol in water, stated) is “practically insoluble”. Moreover, the decrease in potency is 35% in data set [3] (40° C./45% RH) and 85% in data set [3] (40° C./85% RH).
